Experimental data reported in US9809582B2, “Aminoester derivatives” (CHIESI FARMACEUTICI S.p.A., priority 2015, dated 2017).
Like-named read-outs stand apart in the source and are kept apart here.

Legend:
Human M3 receptor = Human M3 receptor (Homo sapiens (Human), UniProt P20309); assay: M3 receptor radioligand binding assay
Protocol: M3 Receptor Radioligand Binding Assay:
The assay is carried out in 96-well polypropylene plates in a volume of 250 μl. […] The final assay concentration of DMSO is 0.5% (v/v). The plates are sealed and incubated for 2 h at room temperature on an orbital shaker (slow speed). Membranes are harvested onto 96-well unifilter GF/C filter plates pre-treated with 0.5% polyethyleneimine (v/v), using a filter manifold, washed four times with […] of assay buffer. The plates are dried before addition of 50 μl of microscint-0, sealed then read in a Trilux Microbeta scintillation counter. IC50 values are determined from competition curves using a non-linear curve fitting program. Ki values are calculated from IC50 values by the Cheng and Prusoff equation.

Human recombinant PDE4B2 = Human recombinant PDE4B2 (Homo sapiens (Human), UniProt Q07343); assay: PDE4B2 HTRF assay; type: biochemical
Protocol: PDE4B2 activity is detected using the LANCE Ultra cAMP homogeneous time resolved fluorescence resonance energy transfer (TR-FRET) assay from Perkin Elmer. The assay is based on the competition between the europium (Eu) chelate-labeled cAMP tracer and sample cAMP for binding sites on cAMP-specific monoclonal antibodies (mAb) labelled with the ULight™ dye. The assay is carried out in 384-well low volume plates in a volume of 10 μl. Human recombinant PDE4B2 (80 pM) is incubated for 2 h with 3 nM cAMP in buffer containing 1×HBSS, 5 mM HEPES, 3 mM MgCl2, 0.1% BSA, pH 7.4 with or without test compounds. The enzymatic reactions are efficiently stopped by the addition of 500 μM IBMX present in the combined Stop/Detection buffer containing europium (Eu) chelate-labeled cAMP tracer and cAMP-specific monoclonal antibodies (mAb) labelled with the ULight™ dye. […] IC50 values are determined from competition curves using a non-linear curve fitting program.

[1] = M3 Receptor radioligand binding assay, read-out: M3 IC50 Activity
[2] = PDE4B2 HTRF assay, read-out: PDE4B2 IC50 Activity

Chain of Human M3 receptor (P20309 whole entry): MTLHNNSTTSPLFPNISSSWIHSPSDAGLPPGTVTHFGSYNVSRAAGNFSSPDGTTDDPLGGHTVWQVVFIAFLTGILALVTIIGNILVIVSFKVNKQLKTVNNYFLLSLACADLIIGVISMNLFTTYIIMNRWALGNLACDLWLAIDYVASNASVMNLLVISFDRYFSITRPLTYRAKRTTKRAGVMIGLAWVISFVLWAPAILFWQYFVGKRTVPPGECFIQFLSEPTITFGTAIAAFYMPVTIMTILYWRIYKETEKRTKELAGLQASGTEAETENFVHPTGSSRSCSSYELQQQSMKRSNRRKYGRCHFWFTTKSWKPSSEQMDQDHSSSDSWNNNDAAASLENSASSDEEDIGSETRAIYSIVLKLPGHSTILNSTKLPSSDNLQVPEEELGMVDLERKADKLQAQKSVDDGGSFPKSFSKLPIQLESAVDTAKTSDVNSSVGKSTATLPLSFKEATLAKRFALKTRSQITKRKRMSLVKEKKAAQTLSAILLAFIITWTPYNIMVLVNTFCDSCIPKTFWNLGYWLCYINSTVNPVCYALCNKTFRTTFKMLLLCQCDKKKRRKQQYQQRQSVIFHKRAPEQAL
Chain of Human recombinant PDE4B2 (Q07343 other isoform, or with tags, fused parts or gaps): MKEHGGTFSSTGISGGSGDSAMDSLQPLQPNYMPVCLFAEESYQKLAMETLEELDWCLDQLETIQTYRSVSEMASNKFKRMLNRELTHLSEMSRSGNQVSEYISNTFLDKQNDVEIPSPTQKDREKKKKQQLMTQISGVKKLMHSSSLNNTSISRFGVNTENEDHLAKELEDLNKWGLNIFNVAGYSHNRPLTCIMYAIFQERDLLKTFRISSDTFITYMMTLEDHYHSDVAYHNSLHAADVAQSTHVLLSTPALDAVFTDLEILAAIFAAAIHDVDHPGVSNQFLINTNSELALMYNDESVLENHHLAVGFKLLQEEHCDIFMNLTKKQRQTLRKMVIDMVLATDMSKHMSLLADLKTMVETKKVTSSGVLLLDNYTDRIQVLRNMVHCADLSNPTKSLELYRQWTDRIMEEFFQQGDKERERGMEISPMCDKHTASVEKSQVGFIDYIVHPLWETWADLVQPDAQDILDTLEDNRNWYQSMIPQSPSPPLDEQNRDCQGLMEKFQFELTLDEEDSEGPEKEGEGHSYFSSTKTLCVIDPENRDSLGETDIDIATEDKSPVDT

Compound	IC50 (Human M3 receptor; M3 IC50 Activity)	IC50 (Human M3 receptor; [1])	further results
COc1ccc([C@H](Cc2c(Cl)c[n+]([O-])cc2Cl)OC(=O)c2ccc(CNCC(C(=O)O[C@H]3CN4CCC3CC4)c3ccccc3)s2)cc1OC (single isomer, unassigned) [Example 20]	< 0.001 µM	–	IC50 (Human recombinant PDE4B2): 0.001 to 0.01 µM
COc1ccc([C@H](Cc2c(Cl)c[n+]([O-])cc2Cl)OC(=O)c2ccc(CNCC(C(=O)O[C@H]3CN4CCC3CC4)c3ccccc3)s2)cc1OC (single isomer, unassigned) [Example 21]	0.001 to 0.01 µM	–	IC50 (Human recombinant PDE4B2; read-out: PDE4B2 IC50 Activity): 0.001 to 0.01 µM
COc1ccc([C@H](Cc2c(Cl)c[n+]([O-])cc2Cl)OC(=O)c2ccc(CNCC(C)(C(=O)OCCN(C)C)c3ccccc3)s2)cc1OC (single isomer, unassigned) [Example 28]	–	0.01 to 0.1 µM	–
COc1ccc([C@H](Cc2c(Cl)c[n+]([O-])cc2Cl)OC(=O)c2ccc(CNC3CC(C(=O)OC4CCN(C)CC4)(c4ccccc4)C3)s2)cc1OC (single isomer, unassigned) [Example 34]	–	0.01 to 0.1 µM	IC50 (Human recombinant PDE4B2; [2]): 0.001 to 0.01 µM
COc1ccc([C@H](Cc2c(Cl)c[n+]([O-])cc2Cl)OC(=O)c2ccc(CNC3CC(C(=O)OC4CCN(C)CC4)(c4ccccc4)C3)s2)cc1OC (single isomer, unassigned) [Example 35]	–	0.001 to 0.01 µM	IC50 (Human recombinant PDE4B2; [2]): 0.001 to 0.01 µM
COc1ccc([C@H](Cc2c(Cl)c[n+]([O-])cc2Cl)OC(=O)c2ccc(CNCC(C(=O)O[C@H]3CN4CCC3CC4)c3ccccc3)s2)cc1OC (stereo partly drawn) [Example 1, [(1S)-2-(3,5-dichloro-1-oxido-pyridin-1-ium-4-yl)-1-(3,4-dimethoxyphenyl)ethyl] 5-[[[3-oxo-2-phenyl-3-[(3R)-quinuclidin-3-yl]oxy-propyl]amino]methyl]thiophene-2-carboxylate]	0.001 to 0.01 µM	–	IC50 (Human recombinant PDE4B2): 0.001 to 0.01 µM
COc1ccc([C@H](Cc2c(Cl)c[n+]([O-])cc2Cl)OC(=O)c2ccc(CNCC(C(=O)O[C@H]3CN4CCC3CC4)c3ccccc3)cc2)cc1OC (stereo partly drawn) [Example 2, [(1S)-2-(3,5-dichloro-1-oxido-pyridin-1-ium-4-yl)-1-(3,4-dimethoxyphenyl)ethyl] 4-[[[3-oxo-2-phenyl-3-[(3R)-quinuclidin-3-yl]oxy-propyl]amino]methyl]benzoate]	0.001 to 0.01 µM	–	IC50 (Human recombinant PDE4B2): 0.001 to 0.01 µM
COc1ccc([C@H](Cc2c(Cl)c[n+]([O-])cc2Cl)OC(=O)c2ccc(CNCC(C(=O)O[C@@H]3CCN(C)C3)c3ccccc3)s2)cc1OC (stereo partly drawn) [Example 4, [(1S)-2-(3,5-dichloro-1-oxido-pyridin-1-ium-4-yl)-1-(3,4-dimethoxyphenyl)ethyl]-5-[[[3-[(3R)-1-methylpyrrolidin-3-yl]oxy-3-oxo-2-phenyl-propyl]amino]methyl]thiophene-2-carboxylate]	–	0.01 to 0.1 µM	IC50 (Human recombinant PDE4B2; [2]): 0.001 to 0.01 µM
COc1ccc([C@H](Cc2c(Cl)c[n+]([O-])cc2Cl)OC(=O)c2ccc(CNCC(C(=O)OC3CCN(C)CC3)c3ccccc3)s2)cc1OC (stereo partly drawn) [Example 5, [(1S)-2-(3,5-dichloro-1-oxido-pyridin-1-ium-4-yl)-1-(3,4-dimethoxyphenyl)ethyl] 5-[[[3-[(1-methyl-4-piperidyl)oxy]-3-oxo-2-phenyl-propyl]amino]methyl]thiophene-2-carboxylate]	–	0.001 to 0.01 µM	–
COc1ccc([C@H](Cc2c(Cl)c[n+]([O-])cc2Cl)OC(=O)c2ccc(CNCC(C)(C(=O)O[C@H]3CN4CCC3CC4)c3ccccc3)s2)cc1OC (stereo partly drawn) [Example 7, [(1S)-2-(3,5-dichloro-1-oxido-pyridin-1-ium-4-yl)-1-(3,4-dimethoxyphenyl)ethyl] 5-[[[2-methyl-3-oxo-2-phenyl-3-[(3R)-quinuclidin-3-yl]oxy-propyl]amino]methyl]thiophene-2-carboxylate]	–	–	IC50 (Human recombinant PDE4B2; read-out: PDE4B2 IC50 Activity): 0.001 to 0.01 µM
COc1ccc([C@H](Cc2c(Cl)c[n+]([O-])cc2Cl)OC(=O)c2ccc(CNCC(C)(C(=O)OC3CCN(C)CC3)c3ccccc3)s2)cc1OC (stereo partly drawn) [Example 8, [(1S)-2-(3,5-dichloro-1-oxido-pyridin-1-ium-4-yl)-1-(3,4-dimethoxyphenyl)ethyl] 5-[[[2-methyl-3-[(1-methyl-4-piperidyl)oxy]-3-oxo-2-phenyl-propyl]amino]methyl]thiophene-2-carboxylate]	–	0.01 to 0.1 µM	–
COc1ccc([C@H](Cc2c(Cl)c[n+]([O-])cc2Cl)OC(=O)c2ccc(CNCC(C)(C(=O)OCCN(C)C)c3ccccc3)s2)cc1OC (stereo partly drawn) [Example 9, [(1S)-2-(3,5-dichloro-1-oxido-pyridin-1-ium-4-yl)-1-(3,4-dimethoxyphenyl)ethyl] 5-[[[3-(2-dimethylaminoethyloxy)-2-methyl-3-oxo-2-phenyl-propyl]amino]methyl]thiophene-2-carboxylate]	–	0.01 to 0.1 µM	–
COc1ccc([C@H](Cc2c(Cl)c[n+]([O-])cc2Cl)OC(=O)c2ccc(CN(C)CC(C)(C(=O)O[C@H]3CN4CCC3CC4)c3ccccc3)s2)cc1OC (stereo partly drawn) [Example 10, [(1S)-2-(3,5-dichloro-1-oxido-pyridin-1-ium-4-yl)-1-(3,4-dimethoxyphenyl)ethyl]-5-[[methyl-[2-methyl-3-oxo-2-phenyl-3-[(3R)-quinuclidin-3-yl]oxy-propyl]amino]methyl]thiophene-2-carboxylate]	0.001 to 0.01 µM	–	IC50 (Human recombinant PDE4B2): 0.001 to 0.01 µM
COc1ccc([C@H](Cc2c(Cl)c[n+]([O-])cc2Cl)OC(=O)c2ccc(CN3CC(C(=O)O[C@H]4CN5CCC4CC5)(c4ccccc4)C3)s2)cc1OC [Example 15, [(3R)-quinuclidin-3-yl]-1-[[5-[(1S)-2-(3,5-dichloro-1-oxido-pyridin-1-ium-4-yl)-1-(3,4-dimethoxyphenyl)ethoxy]carbonyl-2-thienyl]methyl]-3-phenyl-azetidine-3-carboxylate]	–	–	IC50 (Human recombinant PDE4B2): 0.001 to 0.01 µM
COc1ccc([C@H](Cc2c(Cl)c[n+]([O-])cc2Cl)OC(=O)c2ccc(CNCC(C)(C(=O)OC3CCN(C)CC3)c3ccccc3)s2)cc1OC (stereo partly drawn) [Example 24, [(1S)-2-(3,5-dichloro-1-oxido-pyridin-1-ium-4-yl)-1-(3,4-dimethoxyphenyl)ethyl] 5-[[[2-methyl-3-[(1-methyl-4-piperidyl)oxy]-3-oxo-2-phenyl-propyl]amino]methyl]thiophene-2-carboxylate]	–	0.01 to 0.1 µM	–
COc1ccc([C@H](Cc2c(Cl)c[n+]([O-])cc2Cl)OC(=O)c2ccc(CN(C)CC(C)(C(=O)O[C@H]3CN4CCC3CC4)c3ccccc3)s2)cc1OC (stereo partly drawn) [Example 27, [(1S)-2-(3,5-dichloro-1-oxido-pyridin-1-ium-4-yl)-1-(3,4-dimethoxyphenyl)ethyl] 5-[[methyl-[2-methyl-3-oxo-2-phenyl-3-[(3R)-quinuclidin-3-yl]oxy-propyl]amino]methyl]thiophene-2-carboxylate]	–	–	IC50 (Human recombinant PDE4B2; read-out: PDE4B2 IC50 Activity): 0.001 to 0.01 µM
COc1ccc([C@H](Cc2c(Cl)c[n+]([O-])cc2Cl)OC(=O)c2ccc(CNCC(C)(C(=O)O[C@H]3CN4CCC3CC4)c3ccccc3)s2)cc1OC (stereo partly drawn) [Example 30, [(1S)-2-(3,5-dichloro-1-oxido-pyridin-1-ium-4-yl)-1-(3,4-dimethoxyphenyl)ethyl] 5-[[[2-methyl-3-oxo-2-phenyl-3-[(3R)-quinuclidin-3-yl]oxy-propyl]amino]methyl]thiophene-2-carboxylate]	0.001 to 0.01 µM	–	–
COc1ccc([C@H](Cc2c(Cl)c[n+]([O-])cc2Cl)OC(=O)c2ccc(CNC3CC(C(=O)O[C@H]4CN5CCC4CC5)(c4ccccc4)C3)s2)cc1OC (stereo partly drawn) [Example 36, [(1S)-2-(3,5-dichloro-1-oxido-pyridin-1-ium-4-yl)-1-(3,4-dimethoxyphenyl)ethyl] 5-[[[3-phenyl-3-[(3R)-quinuclidin-3-yl]oxycarbonyl-cyclobutyl]amino]methyl]thiophene-2-carboxylate]	–	–	IC50 (Human recombinant PDE4B2; read-out: PDE4B2 IC50 Activity): 0.001 to 0.01 µM
